Tests used:
vanilloid receptor = target: T1, vanilloid receptor (Rattus norvegicus, UniProt O35433); test: 45Ca influx test (calcium uptake) in primary cultured neonatal rat DRG neurons, capsaicin-stimulated; type: cell-based, SD rats; conditions: capsaicin 0.5 µM; for IC50: 45Ca 10 µCi/ml, 10 mins at room temperature, read-out: Antagonist Calcium Uptake Test (IC50); for Antagonist Calcium Uptake Test (% @ 10 µM): 10 µM test compound
T1 construct: DRG nerve cells from the primary culture of 2 days were equilibrated by washing 4 times; endogenous in cells; host or cells: primary culture of dorsal root ganglion (DRG) neurons from neonatal SD rats
T1 sequence (O35433 whole entry): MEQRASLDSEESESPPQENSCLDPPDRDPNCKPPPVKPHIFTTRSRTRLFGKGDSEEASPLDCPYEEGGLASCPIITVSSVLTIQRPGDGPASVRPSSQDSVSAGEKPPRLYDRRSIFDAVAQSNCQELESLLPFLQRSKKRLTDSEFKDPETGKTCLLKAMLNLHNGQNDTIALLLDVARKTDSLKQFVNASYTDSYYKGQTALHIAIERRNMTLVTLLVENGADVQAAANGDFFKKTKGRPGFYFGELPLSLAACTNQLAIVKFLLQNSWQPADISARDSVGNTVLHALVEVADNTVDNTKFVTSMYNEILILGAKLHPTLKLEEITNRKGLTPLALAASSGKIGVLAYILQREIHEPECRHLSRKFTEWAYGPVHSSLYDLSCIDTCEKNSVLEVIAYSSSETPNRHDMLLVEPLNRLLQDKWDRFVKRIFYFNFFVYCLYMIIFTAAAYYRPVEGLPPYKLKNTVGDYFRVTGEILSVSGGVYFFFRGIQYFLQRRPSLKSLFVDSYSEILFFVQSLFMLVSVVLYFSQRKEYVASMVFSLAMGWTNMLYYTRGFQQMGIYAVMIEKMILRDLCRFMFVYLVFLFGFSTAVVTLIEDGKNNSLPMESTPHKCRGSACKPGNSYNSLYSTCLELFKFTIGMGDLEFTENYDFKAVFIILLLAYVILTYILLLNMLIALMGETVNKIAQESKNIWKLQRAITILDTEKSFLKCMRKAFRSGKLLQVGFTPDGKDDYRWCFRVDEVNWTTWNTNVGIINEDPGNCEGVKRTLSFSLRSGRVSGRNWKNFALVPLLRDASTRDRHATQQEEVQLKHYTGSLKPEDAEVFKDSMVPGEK
Description: 1) Separation of spinal dorsal root ganglia (DRG) in newborn rats and primary culture thereof
Neonatal (2-3 day old or younger than 2-3 day old) SD rats were put in ice for 5 minutes to anesthetize and disinfected with 70% ethanol. DRG of all part of spinal cord were dissected (Wood et al., 1988, J. Neurosci. 8, pp3208-3220) and collected in DME/F12 medium to which 1.2g/l sodium bicarbonate, 50mg/l gentamycin were added. The DRG were incubated sequentially at 37°C for 30 min in 200 U/ml collagenase and 2.5mg/ml trypsin, separately. The gangiia were washed twice with DME/F12 medium supplemented with 10% horse serum, triturated through a fire-polished Pasteur pipette, filtered through Nitex 80 membrane to obtain single cell suspension and the suspension was washed once more. This was subjected to centrifugation, then resuspended in cell culture medium at certain level of cell density. As the cell culture medium, DME/F12 medium supplemented with 10% horse serum was diluted with identical medium conditioned by C6 glioma cells 2 days on a confluent monolayer (1:1), and NGF (Nerve Growth Factor) was added to adjust 200ng/ml as final concentration. After the cells were grown 2 days in medium where cytosine arabinoside (Ara-C, 100 µM) was added to kill dividing nonneuronal cells, medium was changed to one without Ara-C. The resuspended cells were plated at a density of 1500-2000 neurons/well onto Terasaki plates previously coated with 10 µg/ml poly-D-ornithine.
2) ^45 Ca influx experiments
DRG nerve cells from the primary culture of 2 days were equilibrated by washing 4 times with HEPES (10mM, pH 7.4)-buffered Ca ^2+, Mg^2+-free HBSS (H-HBSS). The solution in each well was removed from the individual well. Medium containing the test compound plus capsaicin (final concentration 0.5 µM) and ^45Ca (final concentration 10 µCi/ml) in H-HBSS was added to each well and incubated at room temperature for 10 mins. Terasaki plates were washed five times with H-HBSS and dried at room temperature. To each well, 0.3% SDS (10 µl) was added to elute ^45Ca. After the addition of scintillation cocktail of into each well, the amount of ^45Ca influx into neuron was measured by counting radioactivity. […] [Table 1] Results of Calcium Influx Test

Male ICR mice = test: Analgesic activity test: mouse writhing test induced with phenyl-p-quinone; type: in vivo; conditions: ip, 0.5 h, 30 min before phenyl-p-quinone, read-out: Analgesic effect (%Inhibition); for inhibition in vivo at 1 mg/kg: Dose 1 mg/kg intraperitoneally
Description: 2. Analgesic activity test: Mouse writhing test by inducing with phenyl-p-quinone
Male ICR mice (mean body weight 25g) were maintained in a controlled lighting environment (12 h on/ 12 h off) for experiment. Animals received an intraperitoneal injection of 0.3ml of the chemical irritant phenyl-p-quinone (dissolved in saline containing 5% ethanol to be a dose of 4.5mg/kg) and 6 mins later, the number of abdominal constrictions was counted in the subsequent 6 mins period. Animals (10 animals/group) received 0.2ml of test compounds solution in vehicle of ethanol/Tween 80/saline (10/10/80) intraperitoneally 30 min before the injection of phenyl-p-quinone. A reduction in the number of writhes responding to the test drug compound relative to the number responding in saline control group was considered to be indicative of an analgesic effect. Analgesic effect was calculated by % inhibition equation (% inhibition=(C-T)/C x 100), wherein C and T represent the number of writhes in control and compound-treated group, respectively (Table 2).

Row | SMILES | IC50 (vanilloid receptor) | also measured
1 | CC(C)(C)c1ccc(OCC(=O)NCc2ccc(NS(C)(=O)=O)c(F)c2)cc1 [Example 2, 2-(4-tert-Butylphenoxy)-N-(3-fluoro-4-methanesulfonylaminobenzyl)acetamide] | 8.6 nM | inhibition in vivo at 0.3 mg/kg (Male ICR mice; Dose 0.3 mg/kg intraperitoneally): 51%
2 | C#Cc1cc(CNC(=O)COc2ccc(C(C)(C)C)cc2)cc(F)c1NS(C)(=O)=O [Example 6, 2-(4-tert-Butylphenoxy)-N-(3-ethynyl-5-fluoro-4-methanesulfonylaminobenzyl)acetamide] | 19 nM | inhibition in vivo at 0.1 mg/kg (Male ICR mice; Dose 0.1 mg/kg intraperitoneally): 41%
3 | C[C@@H](NC(=O)COc1ccc(C(C)(C)C)cc1)c1ccc(NS(C)(=O)=O)c(F)c1 [Example 12, (R)-2-(4-tert-Butylphenoxy)-N-[1-(3-fluoro-4-methanesuffonylaminophenyl)ethyl]acetamide] | 71 nM | inhibition in vivo at 1 mg/kg (Male ICR mice): 27%
4 | CS(=O)(=O)Nc1ccc(CNC(=O)COc2ccc(C(F)(F)F)cc2I)cc1F [Example 39, N-(3-Fluoro-4-methanesulfonylamino-benzyl)-2-(2-iodo-4-trifluoromethyl-phenoxy)-acetamide] | > 10000 nM | 
5 | CC(C)(C)c1cccc(OCC(=O)NCc2ccc(NS(C)(=O)=O)c(F)c2)c1 [Example 40, N-(3-Fluoro-4-methanesulfonylaminobenzyl)-2-(3-tert-butylphenoxy)acetamide] | 1800 nM | 
6 | CC(=O)c1cc(C(F)(F)F)ccc1OCC(=O)NCc1ccc(NS(C)(=O)=O)c(F)c1 [Example 44, 2-(2-Acetyl-4-trifluoromethyl-phenoxy)-N-(3-fluoro-4-methanesulfonylamino-benzyl)-acetamide] | > 10000 nM | 
7 | CS(=O)(=O)Nc1ccc(CNC(=O)COc2ccc(Br)cc2)cc1F [Example 45, 2-(4-Bromo-phenoxy)-N-(3-fluoro-4-methanesulfonylamino-benzyl)-acetamide] | 3700 nM | 
8 | CS(=O)(=O)Nc1ccc(CNC(=O)COc2cccc(Br)c2)cc1F [Example 46, 2-(3-Bromo-phenoxy)-N-(3-fluoro-4-methanesulfonylamino-benzyl)-acetamide] | 1700 nM | 
9 | CC(C)(C)c1ccc(OCC(=O)NCc2cc(F)c(NS(C)(=O)=O)c(C#N)c2)cc1 [Example 47, 2-[4-(tert-butyl)phenoxy]-N-(3-cyano-5-fluoro-4-methanesulfonyl Amino-benzyl)acetamide] | 150 nM | 
10 | CS(=O)(=O)Nc1ccc(CNC(=O)COc2ccc(F)c(F)c2)cc1F [Example 54, N-(3-Fluoro-4-methanesulfonylaminobenzyl)-2-(3,4-difluorophenoxy)acetamide] | > 10000 nM | 
11 | CC(C)(C)c1ccc(OCC(=O)NCc2ccc(NS(C)(=O)=O)c(F)c2)c(C(C)(C)C)c1 [Example 55, N-(3-Fluoro-4-methanesulfonylaminobenzyl)-2-(2,4-di-tert-butylphenoxy)acetamide] | 5600 nM | 
12 | CS(=O)(=O)Nc1ccc(CNC(=O)COCc2ccc(C(F)(F)F)cc2C(F)(F)F)cc1F [Example 56, N-(3-Fluoro-4-methanesulfonylaminobenzyl)-2-(2,4-bis(trifluoromethyl)benzyloxy)acetamide] | 5100 nM | 
13 | CC(C)(C)C(=O)OCc1cc(C(F)(F)F)ccc1OCC(=O)NCc1ccc(NS(C)(=O)=O)c(F)c1 [Example 58, 2,2-Dimethyl-propionic acid 2-[(3-fluoro-4-methanesulfonylaminobenzylcarbamoyl)-methoxy]-5-trifluoromethyl-benzyl ester] | 3000 nM | 
14 | CS(=O)(=O)Nc1ccc(CNC(=O)COc2ccc(-c3ccccc3Cl)cc2)cc1F [Example 60, 2-(2'-Chloro-biphenyl-4-yloxy)-N-(3-fluoro-4-methanesulfonylaminobenzyl)-acetamide] | > 10000 nM | 
15 | CS(=O)(=O)Nc1ccc(CNC(=O)COc2cccc(-c3ccccc3Cl)c2)cc1F [Example 61, 2-(2'-Chloro-biphenyl-3-yloxy)-N-(3-fluoro-4-methanesulfonylaminobenzyl)-acetamide] | 4500 nM | 
16 | CS(=O)(=O)Nc1ccc(CNC(=O)COc2ccc3c(c2)CCC3)cc1F [Example 62, N-(3-Fluoro-4-methanesulfonylaminobenzyl)-2-(indan-5-yloxy)acetamide] |  | Antagonist Calcium Uptake Test (% @ 10 µM) (vanilloid receptor): 82% @ 10 µM
17 | CS(=O)(=O)Nc1ccc(CNC(=O)COc2ccccc2C2CCCCC2)cc1F [Example 63, N-(3-Fluoro-4-methanesulfonylaminobenzyl)-2-(2-cyclohexylphenoxy)acetamide] |  | Antagonist Calcium Uptake Test (% @ 10 µM) (vanilloid receptor): 52% @ 10 µM
18 | CS(=O)(=O)Nc1ccc(CNC(=O)COc2ccc(C3CCCCC3)cc2)cc1F [Example 64, N-(3-fluoro-4-methanesulfonylamino-benzyl)-2-(4-Cyclohexylphenoxy)-acetamide] | > 10000 nM | 

The next lines start with results.

Row | IC50 (vanilloid receptor) | SMILES | also measured
19 | 180 nM | CC(C)(C)c1ccc(OCC(=O)NCc2ccc(NS(C)(=O)=O)c(Cl)c2)cc1 [Example 3, 2-(4-tert-Butylphenoxy)-N-(3-chloro-4-methanesulfonylaminobenzyl)-acetamide] | inhibition in vivo at 1 mg/kg (Male ICR mice): 39%
20 | 34 nM | C=Cc1cc(CNC(=O)COc2ccc(C(C)(C)C)cc2)cc(F)c1NS(C)(=O)=O [Example 5, 2-(4-tert-Butylphenoxy)-N-(3-fluoro-4-methanesulfonylamino-5-vinylbenzyl)acetamide] | inhibition in vivo at 1 mg/kg (Male ICR mice): 59%
21 | 120 nM | CC(C)(C)c1ccc(OCC(=NC#N)NCc2ccc(NS(C)(=O)=O)c(F)c2)cc1 [Example 18, 2-(4-tert-Butylphenoxy)-N-(3-fluoro-4-methanesulfonylaminobenzyl)-N'-cyanoacetamidine] | inhibition in vivo at 1 mg/kg (Male ICR mice): 33%
22 | > 10000 nM | CCCOc1ccc(OCC(=O)NCc2ccc(NS(C)(=O)=O)c(F)c2)cc1 [Example 41, N-(3-Fluoro-4-methanesulfonylaminobenzyl)-2-(4-n-propoxyphenoxy)acetamide] | 
23 | > 10000 nM | CS(=O)(=O)Nc1ccc(CNC(=O)COc2cccc(Cl)c2)cc1F [Example 42, N-(3-Fluoro-4-methanesulfonylaminobenzyl)-2-(3-chlorophenoxy)acetamide] | 
24 | > 10000 nM | CS(=O)(=O)Nc1ccc(CNC(=O)COc2ccc(C(F)(F)F)cc2N2CCOCC2)cc1F [Example 43, N-(3-Fluoro-4-methanesulfonylamino-benzyl)-2-(2-morpholin-4-yl-4-trifluoromethyl-phenoxy)-acetamide] | 
25 | 180 nM | CC(C)(C)c1ccc(OC(F)C(=O)NCc2ccc(NS(C)(=O)=O)c(F)c2)cc1 (stereo not shown) [Example 48, 2-(4-tert-Butylphenoxy)-2-fluoro-N-(3-fluoro-4-methanesulfonylaminobenzyl)acetamide] | 
26 | > 10000 nM | CS(=O)(=O)Nc1ccc(CNC(=O)COc2ccccc2C(F)(F)F)cc1F [Example 51, 2-(2-trifluoromethyl-phenoxy)-N-(3-fluoro-4-methanesulfonylaminobenzyl)-acetamide] | 
27 | 130 nM | CCC(C)(C)c1ccc(OCC(=O)NCc2ccc(NS(C)(=O)=O)c(F)c2)cc1 [Example 57, N-(3-Fluoro-4-methanesulfonylaminobenzyl)-2-(4-(1,1-dimethylpropyl)phenoxy)acetamide] | 
28 | > 10000 nM | CS(=O)(=O)Nc1ccc(CNC(=O)COc2ccc(Cl)c(F)c2)cc1F [Example 59, N-(3-Fluoro-4-methanesulfonylaminobenzyl)-2-(4-chloro-3-fluorophenoxy)acetamide] | 

Reference: patent EP1857440A1, “Novel compounds, isomer thereof, or pharmaceutically acceptable salts thereof as vanilloid receptor antagonist; and pharmaceutical compositions containing the same” (Amorepacific Corporation, priority 2006, dated 2007)
